# In patent US6413948B1, “Pharmaceutical compositions and methods of effecting a neuronal activity in an animal using naaladase inhibitors” (Guilford Pharmaceuticals Inc., priority 1996, dated 2002):
# System: SHRSP rats which had sustained middle cerebral artery occlusion (MCAO)
# Experiment: In vivo assay on cortical injury following MCAO in SHRSP rats
# From the text: A colony of SHRSP rats is bred at Johns Hopkins School of Medicine from three pairs of male and female rats obtained from the National Institutes of Health (Laboratory, Sciences Section, Veterinary Resources Program, National Center for Research Resources, Bethesda, Md.). All rats are kept in a virus-free environment and maintained on regular diet (NIH 31, Zeigler Bros, Inc.) with water ad libitum. All groups of rats are allowed to eat and drink water until the morning of the experiment.
# Transient occlusion of the middle cerebral artery (MCA) is induced by advancing a 4-0 surgical nylon suture into the internal carotid artery (ICA) to block the origin of the MCA (Koizumi, 1986; Longa, 1989; Chen, 1992). The rats are anesthetized with 4% halothane, and maintained with 1.0% to 1.5% halothane in air enriched oxygen using a face mask. Rectal temperature is maintained at 37.0±0.5° C. throughout the surgical procedure using a heating lamp. The right femoral artery is cannulated for measuring blood gases (pH, oxygen tension [PO2], carbon dioxide tension [PCO2]) before and during ischemia, for monitoring blood pressure during the surgery. The right common carotid artery (CCA) is exposed through a midline incision; a self-retraining retractor is positioned between the digastric and mastoid muscles, and the omohyoid muscle is divided. The right external carotid artery (ECA) is dissected and ligated. The occipital artery branch of the ECA is then isolated and coagulated. Next, the right internal carotid artery (ICA) is isolated until the pterygopalatine artery is exposed, and carefully separated from the adjacent vagus nerve. The pterygopalatine artery is ligated with 4-0 silk suture close to its origin.
# After the CCA is ligated with 4-0 silk suture, a 4-0 silk suture to prevent bleeding from a puncture site, through which a 2.5 cm length of 4-0 monofilament nylon suture (Ethilon), its tip rounded by heating near a electric cautery, is introduced into the ICA lumen. A 6-0 silk suture is tightened around the intraluminal nylon suture at the bifurcation to prevent bleeding, and the stretched sutures at the CCA and the ICA are released. The nylon suture is then gently advanced as far as 20 mm.
# Anesthesia is terminated after 10 minutes of MCA occlusion in both groups, and the rats were awakened 5 minutes thereafter. After 2 hours of ischemia, anesthesia is reanesthetized, and reperfusion is performed by withdrawing the intraluminal nylon suture until the distal tip became visible at the origin of the ICA.
# Arterial pH and PaCO2, and partial pressure of oxygen (PaO2) are measured with a self-calibrating Radiometer electrode system (ABL 3; Copenhagen, Denmark). Hemoglobin and arterial oxygen content are measured with a hemoximeter (Radiometer, Model OSM3; Copenhagen, Denmark). Blood glucose is measured with a glucose analyzer (model 2300A, Yellow Springs Instruments, Yellow Springs, Ohio).
# Each group is exposed to 2 hours of right MCA occlusion and 22 hours of reperfusion. All variables but the rectal temperature are measured at baseline, at 15 minutes and 45 minutes of right MCA occlusion. The rectal temperature is measured at baseline, at 0 and 15 min of MCA occlusion, and at 0 and 22 hours of reperfusion.
# [1] = 10 mg/kg followed by 2 mg/kg/hr for 1 hour
# [2] = 100 mg/kg followed by 20 mg/kg/hr for one hour
smiles,measurement,setting,value
O=C(O)CCC(CP(=O)(O)O)C(=O)O (stereo not drawn) [2-(phosphonomethyl)pentanedioic acid],Cortical Injury Volume (% injury) ± S.E.M.,[1],29.14 ± 7.68 (n = 10) % injury
same,Cortical Injury Volume (mm^3) ± S.E.M.,[1],135.00 ± 32.18 (n = 10) mm^3
same,Cortical Protection (% protection),[1],27%
same,Cortical Injury Volume (% injury) ± S.E.M.,[2],13.98 ± 6.64 (n = 10) % injury
same,Cortical Injury Volume (mm^3) ± S.E.M.,[2],65.23 ± 32.18 (n = 10) mm^3
same,Cortical Protection (% protection),[2],65%
